In ChEMBL document CHEMBL1201862, “PubChem BioAssay data set” (2004):
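Tested at 5 concentrations; 48 h exposure; 96-well plates; endpoints linearly interpolated, else capped at highest concentration. At the GI50, growth is halved.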 Calls of active or inactive are those of the source. Cut-off read from the data, not from the text of the source: active = GI50 up to about 1.1 µM and inactive = higher.

Experiments:
Test in all cases: NCI tumour cell line growth inhibition, 48 h
[1] = tested on: DU-145
[2] = tested on: U-251
[3] = tested on: UACC-257
[4] = tested on: CCRF-CEM
[5] = tested on: K562
[6] = tested on: OVCAR-5
[7] = tested on: HCT-15
[8] = tested on: 786-0
[9] = tested on: SK-MEL-2
[10] = tested on: HOP-92
[11] = tested on: SK-MEL-5
[12] = tested on: SK-MEL-28
[13] = tested on: HOP-62
[14] = tested on: EKVX
[15] = tested on: SF-539
[16] = tested on: RXF 393
[17] = tested on: SNB-75
[18] = tested on: HCC 2998
[19] = tested on: NCI-H522
[20] = tested on: SF-295

Compound	GI50 [1]	GI50 [2]	GI50 [3]	GI50 [4]	GI50 [5]	GI50 [6]	GI50 [7] [µM]	GI50 [8]	GI50 [9]	GI50 [10]	GI50 [11]	GI50 [12]	GI50 [13]	GI50 [14]	GI50 [15]	GI50 [16]	GI50 [17]	GI50 [18]	GI50 [19]	GI50 [20]
O=C1c2cccnc2-c2nccc3c2c1nc1cc(Br)ccc13	0.121 µM (active)	0.0843 µM (active)	0.226 µM (active)	0.0989 µM (active)	0.033 µM (active)	0.24 µM (active)	0.0721	0.0713 µM (active)	0.165 µM (active)	0.438 µM (active)	0.132 µM (active)	0.0843 µM (active)	0.155 µM (active)	1.15 µM (inactive)	0.279 µM (active)	0.0946 µM (active)	0.243 µM (active)	0.406 µM (active)	0.115 µM (active)	0.227 µM (active)
CC(=O)Nc1ccc(-c2nc3ccccc3s2)cc1I	11 µM (inactive)	25.1 µM (inactive)	> 100 µM (inactive)	> 100 µM (inactive)	> 58.1 µM (inactive)		> 83.4	18.5 µM (inactive)	50.4 µM (inactive)	26.4 µM (inactive)	> 100 µM (inactive)	> 100 µM (inactive)	15.6 µM (inactive)	7.87 µM (inactive)	14.3 µM (inactive)	14.8 µM (inactive)	24.2 µM (inactive)	0.488 µM (active)	42.2 µM (inactive)	29.4 µM (inactive)
COc1cccc(Nc2n[nH]c(NS(=O)(=O)c3cc(C)c(Cl)cc3S)n2)c1	> 100 µM (inactive)	> 100 µM (inactive)	> 100 µM (inactive)	> 100 µM (inactive)	> 100 µM (inactive)	> 100 µM (inactive)	> 100	> 100 µM (inactive)	> 100 µM (inactive)	> 100 µM (inactive)	> 100 µM (inactive)	> 100 µM (inactive)	> 100 µM (inactive)	> 100 µM (inactive)	> 100 µM (inactive)	> 100 µM (inactive)	> 100 µM (inactive)	> 100 µM (inactive)	> 100 µM (inactive)	> 100 µM (inactive)
Cc1ccc(/C(C#N)=C/c2cccc([N+](=O)[O-])c2)cc1	98.6 µM (inactive)	46.7 µM (inactive)	> 100 µM (inactive)		> 100 µM (inactive)	> 100 µM (inactive)	> 100	31.8 µM (inactive)	51.9 µM (inactive)	32.2 µM (inactive)	> 100 µM (inactive)	> 100 µM (inactive)	38.1 µM (inactive)	29.5 µM (inactive)	46.5 µM (inactive)	19.3 µM (inactive)	19.5 µM (inactive)	> 100 µM (inactive)	> 100 µM (inactive)	24.4 µM (inactive)
CN(C)c1ccc(/C=C(\C#N)c2nc(-c3cc4ccccc4oc3=O)cs2)cc1	> 50 µM (inactive)	6.89 µM (inactive)	> 50 µM (inactive)	> 50 µM (inactive)	> 50 µM (inactive)	> 50 µM (inactive)	> 50	7.23 µM (inactive)	12 µM (inactive)	5.12 µM (inactive)	> 50 µM (inactive)	> 50 µM (inactive)	5.93 µM (inactive)	> 50 µM (inactive)	8.89 µM (inactive)	12.3 µM (inactive)	1.72 µM (inactive)	> 50 µM (inactive)	6.75 µM (inactive)	10.6 µM (inactive)
CN(C)c1ccc(/C=C2\C[N+](C)(C)C/C(=C\c3ccc(N(C)C)cc3)C2=O)cc1	31.3 µM (inactive)	6.27 µM (inactive)	12.1 µM (inactive)	9.53 µM (inactive)	7.98 µM (inactive)	38.9 µM (inactive)	> 100	30.7 µM (inactive)	14.9 µM (inactive)	19.4 µM (inactive)	11.6 µM (inactive)	15.3 µM (inactive)	42.8 µM (inactive)	38 µM (inactive)	21.1 µM (inactive)	> 48.2 µM (inactive)	17.1 µM (inactive)	8.18 µM (inactive)	9.66 µM (inactive)	31.6 µM (inactive)
CC(=O)/C(=C(/Br)I)c1ccccc1	15.8 µM (inactive)	13.1 µM (inactive)	12.6 µM (inactive)	1.58 µM (inactive)	2.82 µM (inactive)	18.1 µM (inactive)	4.32	9.04 µM (inactive)	4.82 µM (inactive)	10.5 µM (inactive)	7.71 µM (inactive)	11.2 µM (inactive)	14.1 µM (inactive)	12.6 µM (inactive)	16.6 µM (inactive)	3.36 µM (inactive)	14.2 µM (inactive)	6.81 µM (inactive)	0.442 µM (active)	15.5 µM (inactive)
O=C1CC(=O)NC(NN2C(=O)CSC2C(=O)c2ccco2)=N1 (configuration not stated)	> 100 µM (inactive)	> 100 µM (inactive)	> 100 µM (inactive)	> 100 µM (inactive)	> 100 µM (inactive)	> 100 µM (inactive)	> 100	> 100 µM (inactive)	> 100 µM (inactive)	> 100 µM (inactive)	> 100 µM (inactive)	> 100 µM (inactive)	> 100 µM (inactive)		> 100 µM (inactive)	> 100 µM (inactive)	12.2 µM (inactive)	> 100 µM (inactive)	> 100 µM (inactive)	78.7 µM (inactive)
COC1CC(NC(=O)C(F)(F)F)C(OC(C)=O)C(C)O1 (configuration not stated)	> 100 µM (inactive)	> 100 µM (inactive)	> 100 µM (inactive)	> 100 µM (inactive)	> 100 µM (inactive)	> 100 µM (inactive)	> 100	> 100 µM (inactive)	> 100 µM (inactive)	72.1 µM (inactive)	> 100 µM (inactive)	> 100 µM (inactive)	> 100 µM (inactive)	> 100 µM (inactive)	> 100 µM (inactive)	> 100 µM (inactive)	> 100 µM (inactive)	> 100 µM (inactive)	> 100 µM (inactive)	> 100 µM (inactive)
CC(C)(C)NCC(O)c1ccc(O)c(CO)n1 (configuration not stated)	> 100 µM (inactive)	> 100 µM (inactive)	> 100 µM (inactive)			> 100 µM (inactive)	> 100	> 100 µM (inactive)	> 100 µM (inactive)	> 100 µM (inactive)	> 100 µM (inactive)	> 100 µM (inactive)	> 100 µM (inactive)	> 100 µM (inactive)	> 100 µM (inactive)	> 100 µM (inactive)	> 100 µM (inactive)	> 100 µM (inactive)	> 100 µM (inactive)	> 100 µM (inactive)
C=C(C)[C@@]1(O)CCCC[C@@H]1CC(Sc1ccccc1)Sc1ccccc1	15.7 µM (inactive)	21.1 µM (inactive)	20.2 µM (inactive)	23.4 µM (inactive)	14.2 µM (inactive)	16.3 µM (inactive)	15	17.8 µM (inactive)	12.8 µM (inactive)	4.3 µM (inactive)	15.7 µM (inactive)	18.1 µM (inactive)	16.5 µM (inactive)	13.4 µM (inactive)		13.4 µM (inactive)	16 µM (inactive)	16.5 µM (inactive)	11.7 µM (inactive)	16.6 µM (inactive)
O=C(CSc1nc2ccc(I)cc2c(=O)n1Cc1ccccc1)NN1C(=O)CCC1=O	> 100 µM (inactive)	41.2 µM (inactive)	45 µM (inactive)	34.5 µM (inactive)	33.3 µM (inactive)	> 100 µM (inactive)	22.5	52.7 µM (inactive)	47 µM (inactive)	25.5 µM (inactive)	48.4 µM (inactive)	61.4 µM (inactive)	54.5 µM (inactive)	34.1 µM (inactive)	61.4 µM (inactive)	25.5 µM (inactive)	36.3 µM (inactive)	77.4 µM (inactive)	20.4 µM (inactive)	37.9 µM (inactive)
COC(=O)C1C2CC3C1C3C2C(=O)OC (configuration not stated)	> 100 µM (inactive)	> 100 µM (inactive)	> 100 µM (inactive)	> 100 µM (inactive)	> 100 µM (inactive)	> 100 µM (inactive)	> 100	> 100 µM (inactive)	> 100 µM (inactive)	> 100 µM (inactive)	> 100 µM (inactive)	> 100 µM (inactive)	> 100 µM (inactive)	> 100 µM (inactive)	> 100 µM (inactive)	> 100 µM (inactive)	> 100 µM (inactive)	> 100 µM (inactive)	> 100 µM (inactive)	> 100 µM (inactive)
O=CN1CCN(C(=O)c2ccc(Cl)cc2Cl)C1=S	84.5 µM (inactive)	> 100 µM (inactive)	> 100 µM (inactive)	27.5 µM (inactive)	85.5 µM (inactive)	> 100 µM (inactive)	78.7	30.7 µM (inactive)	> 100 µM (inactive)	34.2 µM (inactive)		> 100 µM (inactive)	> 100 µM (inactive)	> 100 µM (inactive)	> 100 µM (inactive)	29.3 µM (inactive)	21 µM (inactive)	> 100 µM (inactive)	20.3 µM (inactive)	> 100 µM (inactive)
C=C1C(=O)C23C(O)CC4C(C)(C)CCC(O)C4(C)C2CC(OC(C)=O)C1[C@H]3O (some centres not stated)	> 10 µM (inactive)	8.81 µM (inactive)	3.28 µM (inactive)	0.442 µM (active)	1.84 µM (inactive)	9.75 µM (inactive)	2.06	2.4 µM (inactive)	2.55 µM (inactive)	2.26 µM (inactive)		3.39 µM (inactive)	14.7 µM (inactive)	4.88 µM (inactive)	3.5 µM (inactive)	2.62 µM (inactive)	8.61 µM (inactive)	4.06 µM (inactive)	0.123 µM (active)	8.05 µM (inactive)
